Assay results published in paper PMC6270026, “Antibacterial and Herbicidal Activity of Ring-Substituted 2-Hydroxynaphthalene-1-carboxanilides” (Molecules, 2013).
Values after ≈ are worked out from the molar mass of the structure shown. Like-named read-outs stand apart in the source and are kept apart here.

Key:
[1] = design: method as in PMID 23884130; details: 3-hydroxynaphthalene-2-carboxanilide series; cited from earlier work
[2] = test system: human monocytic leukemia THP-1 cells; experiment: In vitro cytotoxicity assay (LDH); assay type: cell-based; details: treatment with 20 µmol/L, 24 h
Procedure: Human monocytic leukemia THP-1 cells were obtained from the European Collection of Cell Cultures (ECACC, Salisbury, UK; Methods of characterization: DNA Fingerprinting (Multilocus probes) and isoenzyme analysis). These cells were routinely cultured in RPMI 1640 (Lonza, Verviers, Belgium) medium supplemented with 10% fetal bovine serum (FBS, Sigma-Aldrich), 2% L-glutamine, 1% penicillin and streptomycin (Lonza, Verviers, Belgium) at 37 °C with 5% CO2. Cells were passaged at approximately 1 week intervals. Cells were routinely tested for the absence of mycoplasma (Hoechst 33258 staining method). The tested compounds were dissolved in DMSO (Sigma-Aldrich) and added in five increasing concentrations to the cell suspension in the culture medium. The maximum concentration of DMSO in the assays never exceeded 0.1%. Subsequently, the cells were incubated for 24 h at 37 °C with 5% CO2 to various compound concentrations ranging from 0.37 to 20 μmol/L in RPMI 1640 medium. Cell toxicity was determined using a Cytotoxicity Detection Kit^PLUS Lactate dehydrogenase (LDH) assay kit (Roche Diagnostics, Mannheim, Germany) according to the manufacturer’s instructions, as described previously. […] All data were evaluated using GraphPad Prism 5.00 software (GraphPad Software, San Diego, CA, USA).

[3] = Lipophilicity determination by RP-HPLC (capacity factor log k); assay type: physicochemical; details: isocratic, MeOH 60%/H2O 40%, C18
Procedure: A HPLC system Agilent 1200 equipped with DAD detector (Agilent, Santa Clara, CA, USA) was used. A chromatographic column Symmetry® C18 5 μm, 4.6 × 250 mm, Part No. WAT054275, (Waters Corp., Milford, MA, USA) was used. The HPLC separation process was monitored and evaluated by EZChrom Elite software ver. 3.3.2 (Agilent). Isocratic elution by a mixture of MeOH p.a. (60%) and H2O-HPLC Mili-Q grade (40%) as a mobile phase was used. The total flow of the column was 1.0 mL/min, injection 20 μL, column temperature 40 °C and sample temperature 10 °C. The detection wavelength 210 nm was chosen. The KI methanolic solution was used for the dead time (tD) determination. Retention times (tR) were measured in minutes. The capacity factors k were calculated according to formula k = (tR − tD)/tD, where tR is the retention time of the solute, whereas tD denotes the dead time obtained using an unretained analyte. Log k, calculated from the capacity factor k, is used as the lipophilicity index converted to log P scale.

[4] = test system: photosynthetic electron transport (PET) in spinach chloroplasts; experiment: Inhibition of photosynthetic electron transport (PET) in spinach chloroplasts; assay type: biochemical, Spinacia oleracea L.; details: DCPIP photoreduction
Procedure: Chloroplasts were prepared from spinach (Spinacia oleracea L.) according to Masarovicova and Kralova. The inhibition of photosynthetic electron transport (PET) in spinach chloroplasts was determined spectrophotometrically (Genesys 6, Thermo Electron Scientific Instruments, Madison, WI, USA), using an artificial electron acceptor 2,6-dichlorophenol-indophenol (DCPIP) according to Kralova et al., and the rate of photosynthetic electron transport was monitored as a photoreduction of DCPIP. The measurements were carried out in phosphate buffer (0.02 mol/L, pH 7.2) containing sucrose (0.4 mol/L), MgCl2 (0.005 mol/L) and NaCl (0.015 mol/L). The chlorophyll content was 30 mg/L in these experiments and the samples were irradiated (~100 W/m^2 with 10 cm distance) with a halogen lamp (250 W) using a 4 cm water filter to prevent warming of the samples (suspension temperature 22 °C). The studied compounds were dissolved in DMSO due to their limited water solubility. […] The inhibitory efficiency of the studied compounds was expressed by IC50 values, i.e., by molar concentration of the compounds causing 50% decrease in the oxygen evolution rate relative to the untreated control.

[5] = test system: Mycobacterium avium subsp. paratuberculosis (CIT03); experiment: In vitro antimycobacterial evaluation (alamarBlue MIC); assay type: cell-based; details: 264 h, M. avium paratuberculosis CIT03, 11 days, 37 °C
Procedure: A well characterised clinical isolate of Mycobacterium avium subsp. paratuberculosis (CIT03) was grown in Middlebrook broth (MB), supplemented with Oleic-Albumin-Dextrose-Catalase supplement (OADC, Becton, Dickinson & Comp., Franklin Lakes, NJ, USA) and mycobactin J (2 µg/mL). Identification of this isolate was performed using biochemical and molecular protocols. At log phase growth, a culture sample (10 mL) was centrifuged at 15,000 rpm/20 min using a bench top centrifuge (Model CR 4-12, Jouan Inc., Winchester, VA, USA). Following removal of the supernatant, the pellet was washed in fresh Middlebrook 7H9GC broth and re-suspended in fresh supplemented MB (10 mL). The turbidity was adjusted to match McFarland standard No. 1 (3 × 10^8 cfu) with MB broth. A further 1:20 dilution of the culture was then performed in MB broth. The antimicrobial susceptibility of the mycobacterial species was investigated in a 96-well plate format. In these experiments, sterile deionised water (300 µL) was added to all outer-perimeter wells of the plates to minimize evaporation of the medium in the test wells during incubation. Each evaluated compound (100 µL) was incubated with each of the mycobacterial species (100 µL). Dilutions of each compound were prepared in duplicate. For all synthesized compounds, final concentrations ranged from 1,000 µg/mL to 8 µg/mL. All compounds were prepared in DMSO and subsequent dilutions were made in supplemented MB. The plates were sealed with parafilm and incubated at 37 °C, for 11 days in the case of M. avium paratuberculosis. Following incubation, a 10% addition of alamarBlue (AbD Serotec, Kidlington, UK) was mixed into each well and readings at 570 nm and 600 nm were taken, initially for background subtraction and subsequently after 24 h re-incubation. The background subtraction is necessary for strongly coloured compounds, where the colour may interfere with the interpretation of any colour change. For non-interfering compounds, a blue colour in the well was interpreted as an absence of growth and a pink colour was scored as growth. The minimum inhibitory concentrations (MICs) were initially defined as the lowest concentration which prevented a visual colour change from blue to pink.
The MICs were defined as the lowest concentration of the compound at which no visible bacterial growth was observed. The MIC value is routinely and widely used in bacterial assays and is a standard detection limit according to the Clinical and Laboratory Standards Institute (CLSI). Isoniazid (Sigma-Aldrich) was used as reference antimycobacterial drug.

M. smegmatis ATCC 700084 = experiment: In vitro antimycobacterial evaluation (broth dilution MIC); assay type: cell-based, Mycobacterium smegmatis; details: Mycolicibacterium smegmatis, ATCC700084, 72 h; M. smegmatis ATCC 700084, 3 days, 37 °C
[6] = test system: Mycobacterium marinum CAMP 5644; experiment: as above; assay type: cell-based; details: for MIC: Mycobacterium marinum, CAMP5644, 504 h, M. marinum CAMP 5644, 21 days, 28 °C
[7] = test system: spinach chloroplasts (photosystem II); experiment: Chlorophyll a and aromatic amino acids fluorescence in spinach chloroplasts; assay type: biochemical, Spinacia oleracea L.
Procedure: The fluorescence emission spectra of chlorophyll a (Chla) and aromatic amino acids (AAA) in spinach chloroplasts were recorded on fluorescence spectrophotometer F-2000 (Hitachi, Tokyo, Japan) using excitation wavelength λex = 436 nm for monitoring fluorescence of Chla and λex = 275 nm for monitoring AAA fluorescence, excitation slit 20 nm and emission slit 10 nm. The samples were kept in the dark for 2 min before measuring. The phosphate buffer used for dilution of the chloroplast suspension was the same as described above. Due to low aqueous solubility the compounds were added to chloroplast suspension in DMSO solution. The DMSO concentration in all samples was the same as in the control (10%). The chlorophyll concentration in chloroplast suspension was 10 mg/L.

M. kansasii DSM 44162 = experiment: In vitro antimycobacterial evaluation (broth dilution MIC); assay type: cell-based; details: Mycobacterium kansasii, DSM44162, 168 h; M. kansasii DSM 44162, 7 days, 37 °C
[8] = test system: methicillin-resistant Staphylococcus aureus SA 630; experiment: In vitro antibacterial susceptibility testing (broth dilution MIC); assay type: cell-based; details: MRSA, clinical isolate SA 630, 24 h, 37 °C
Procedure: (§1) The synthesized compounds were evaluated for in vitro antibacterial activity against representatives of multidrug-resistant bacteria, clinical isolates of methicillin-resistant Staphylococcus aureus (MRSA) 63718, SA 630 and SA 3202 that were obtained from the National Institute of Public Health, Prague, Czech Republic. Staphylococcus aureus ATCC 29213 was used as a reference and quality control strain. Ampicillin (Sigma-Aldrich) was used as the standard. Prior to testing, each strain was passaged onto nutrient agar (Oxoid, Hampshire, UK) with 5% of bovine blood, and bacterial inocula were prepared by suspending a small portion of bacterial colony in sterile phosphate buffered saline (pH 7.2–7.3). The cell density was adjusted to 0.5 McFarland units using a densitometer (Densi-La-Meter, LIAP, Riga, Latvia). The final inoculum was made by 1:20 dilution of the suspension with the Mueller-Hinton broth (MH broth). […] The final concentrations of the evaluated compounds ranging from 256 μg/mL to 0.008 μg/mL. The broth dilution micro-method modified according to NCCLS guidelines in MH broth was used to determine the minimum inhibitory concentration (MIC). Drug-free controls, sterility controls and controls consisted of MH broth and DMSO alone were included. The determination of results was performed visually after 24 h of static incubation in the darkness at 37 °C in an aerobic atmosphere. The MICs were defined as the lowest concentration of the compound at which no visible bacterial growth was observed.

[9] = test system: methicillin-resistant Staphylococcus aureus (MRSA) 63718; experiment: as above; assay type: cell-based; details: clinical isolate MRSA 63718, 24 h, 37 °C
Procedure: as §1

[10] = test system: Staphylococcus aureus ATCC 29213; experiment: as above; assay type: cell-based; details: ATCC29213; Staphylococcus aureus ATCC 29213, 24 h, 37 °C
Procedure: as §1

[11] = test system: methicillin-resistant Staphylococcus aureus SA 3202; experiment: as above; assay type: cell-based; details: MRSA, clinical isolate SA 3202, 24 h, 37 °C, read-out: MIC MRSA 3202
Procedure: as §1

Compound: O=C(c1cc(O)cc2ccccc12)N(c1ccccc1)c1ccccc1 [3-hydroxy-N-phenylnaphthalene-1-carboxanilide]
- log k [1]: 0.6310

Compound: O=C(Nc1ccccc1)c1c(O)ccc2ccccc12 [Compound 1, 2-Hydroxy-N-phenylnaphthalene-1-carboxamide]
- lethal effect on THP-1 cells [2]: did not lead to significant lethal effects
- log k [3]: 1.3016
- IC50 [4]: 28.9 µM
- MIC [5]: 950 µM (≈ 250 µg/mL)
- MIC (M. smegmatis ATCC 700084): 486 µM (≈ 128 µg/mL)
- MIC [6]: 60.7 µM (≈ 16 µg/mL)
- aromatic amino acids (AAA) fluorescence at 334 nm ([7]; c = 0.012-0.117 mmol/L, λex 275 nm): strong decline
- chlorophyll a fluorescence emission band at 686 nm ([7]; c = 0.059-0.468 mmol/L, λex 436 nm): decreased intensity
- MIC (M. kansasii DSM 44162): 15.2 µM (≈ 4 µg/mL)

Compound: O=C(Nc1ccccc1Br)c1c(O)ccc2ccccc12 [Compound 6a, N-(2-bromophenyl)-2-hydroxynaphthalene-1-carboxamide]
- log k [3]: 0.9509
- IC50 [4]: 52.2 µM
- MIC [5]: 731 µM (≈ 250 µg/mL)
- MIC (M. smegmatis ATCC 700084): > 748 µM
- MIC [8]: > 748 µM
- MIC [9]: > 748 µM
- MIC [10]: > 748 µM
- MIC [11]: > 748 µM
- MIC [6]: > 748 µM
- MIC (M. kansasii DSM 44162): 93.5 µM (≈ 32 µg/mL)

Compound: O=C(Nc1cccc(Br)c1)c1c(O)ccc2ccccc12 [Compound 6b, N-(3-bromophenyl)-2-hydroxynaphthalene-1-carboxamide]
- log k [3]: 0.8595
- IC50 [4]: 61.1 µM
- MIC [5]: 731 µM (≈ 250 µg/mL)
- MIC (M. smegmatis ATCC 700084): > 748 µM
- MIC [8]: > 748 µM
- MIC [9]: > 748 µM
- MIC [10]: > 748 µM
- MIC [11]: > 748 µM
- MIC [6]: > 748 µM
- MIC (M. kansasii DSM 44162): 46.7 µM (≈ 16 µg/mL)

Compound: O=C(Nc1ccc(Br)cc1)c1c(O)ccc2ccccc12 [Compound 6c, N-(4-bromophenyl)-2-hydroxynaphthalene-1-carboxamide]
- log k [3]: 0.8790
- IC50 [4]: 102 µM
- MIC [5]: 175 µM (≈ 59.9 µg/mL)
- MIC (M. smegmatis ATCC 700084): 187 µM (≈ 64 µg/mL)
- MIC [8]: 47 µM (≈ 16.1 µg/mL)
- MIC [9]: 187 µM (≈ 64 µg/mL)
- MIC [10]: 47 µM (≈ 16.1 µg/mL)
- MIC [11]: 94.1 µM (≈ 32.2 µg/mL)
- MIC [6]: 187 µM (≈ 64 µg/mL)
- MIC (M. kansasii DSM 44162): 93.5 µM (≈ 32 µg/mL)

Compound: O=C(Nc1ccc(C(F)(F)F)cc1)c1c(O)ccc2ccccc12 [Compound 7c, 2-Hydroxy-N-(4-trifluoromethylphenyl)naphthalene-1-carboxamide]
- log k [3]: 0.9994
- IC50 [4]: 29 µM
- MIC [5]: 731 µM (≈ 242 µg/mL)
- MIC (M. smegmatis ATCC 700084): > 748 µM
- MIC [8]: 94 µM (≈ 31.1 µg/mL)
- MIC [9]: 94 µM (≈ 31.1 µg/mL)
- MIC [10]: > 748 µM
- MIC [11]: 47 µM (≈ 15.6 µg/mL)
- MIC [6]: > 748 µM
- MIC (M. kansasii DSM 44162): 23.3 µM (≈ 7.72 µg/mL)

Compound: O=C(Nc1ccccc1[N+](=O)[O-])c1c(O)ccc2ccccc12 [Compound 8a, 2-Hydroxy-N-(2-nitrophenyl)naphthalene-1-carboxamide]
- lethal effect on THP-1 cells [2]: did not lead to significant lethal effects
- log k [3]: 0.8501
- IC50 [4]: 121 µM
- MIC [5]: 195 µM (≈ 60.1 µg/mL)
- MIC [8]: 104 µM (≈ 32.1 µg/mL)
- MIC [11]: 52 µM (≈ 16 µg/mL)
- MIC [6]: 104 µM (≈ 32.1 µg/mL)
- MIC (M. kansasii DSM 44162): 51.9 µM (≈ 16 µg/mL)

Compound: O=C(Nc1cccc([N+](=O)[O-])c1)c1c(O)ccc2ccccc12 [Compound 8b, 2-Hydroxy-N-(3-nitrophenyl)naphthalene-1-carboxamide]
- lethal effect on THP-1 cells [2]: did not lead to significant lethal effects
- log k [3]: 0.9187
- IC50 [4]: 86.4 µM
- MIC [5]: 405 µM (≈ 125 µg/mL)
- MIC [6]: ~52 µM (≈ 16 µg/mL)
- fold higher activity against M. marinum than isoniazid ([6]; ratio of MIC to isoniazid): about 9 fold
- MIC (M. kansasii DSM 44162): 104 µM (≈ 32.1 µg/mL)
